ChEMBL document CHEMBL1201862, “PubChem BioAssay data set” (2004)
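Tested at 5 concentrations; 48 h exposure; 96-well plates; endpoints linearly interpolated, else capped at highest concentration. At the GI50, growth is halved.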 The source made the active and inactive calls. Rule as the data show it: active = GI50 up to about 1.1 µM and inactive = higher.

Key:
Assay in all cases: DTP human tumour cell line panel, 48 h
HCT-116 = test system: HCT-116
SNB-75 = test system: SNB-75
EKVX = test system: EKVX
MDA-MB-435 = test system: MDA-MB-435
CAKI-1 = test system: CAKI-1
KM12 = test system: KM12
SK-MEL-28 = test system: SK-MEL-28
HCC 2998 = test system: HCC 2998
TK-10 = test system: TK-10
IGROV-1 = test system: IGROV-1
DU-145 = test system: DU-145
MCF7 = test system: MCF7
OVCAR-8 = test system: OVCAR-8
LOX IMVI = test system: LOX IMVI
SNB-19 = test system: SNB-19
SN12C = test system: SN12C
SF-268 = test system: SF-268
SK-MEL-2 = test system: SK-MEL-2
A498 = test system: A498

Measured: GI50

Nc1c2ccccc2nc2ccc(C(=O)Nc3ccc(S(N)(=O)=O)cc3)cc12
inactive: HCT-116 > 100 µM | SNB-75 > 100 µM | EKVX > 100 µM | MDA-MB-435 > 100 µM | CAKI-1 > 100 µM | KM12 > 100 µM | SK-MEL-28 > 100 µM | HCC 2998 > 100 µM | TK-10 > 100 µM | IGROV-1 > 100 µM | DU-145 > 100 µM | MCF7 > 100 µM | OVCAR-8 > 100 µM | LOX IMVI > 100 µM | SNB-19 > 100 µM | SN12C > 100 µM | SF-268 > 100 µM | SK-MEL-2 > 100 µM

CC(=O)NC(C)(C)C1CC=C(C)CC1 (stereo unspecified)
inactive: HCT-116 > 100 µM | SNB-75 > 100 µM | EKVX > 100 µM | MDA-MB-435 > 100 µM | CAKI-1 > 100 µM | KM12 > 100 µM | SK-MEL-28 > 100 µM | HCC 2998 > 100 µM | TK-10 > 100 µM | IGROV-1 > 100 µM | DU-145 > 100 µM | MCF7 > 100 µM | OVCAR-8 > 100 µM | A498 > 100 µM | LOX IMVI > 100 µM | SNB-19 > 100 µM | SN12C > 100 µM | SF-268 > 100 µM

COC(=O)c1c(O)ccc2[nH]c3c(O)c4ccccc4cc3c12
inactive: HCT-116 16.7 µM | EKVX 16.8 µM | MDA-MB-435 27.9 µM | CAKI-1 18.5 µM | KM12 16 µM | SK-MEL-28 35 µM | HCC 2998 13.9 µM | TK-10 34.2 µM | IGROV-1 16.7 µM | DU-145 20 µM | MCF7 16 µM | OVCAR-8 20.2 µM | A498 41.4 µM | SNB-19 41.7 µM | SN12C 43.6 µM | SF-268 21.9 µM | SK-MEL-2 32.4 µM

CC1C2CC(CC2N)C1(C)C (stereo unspecified)
inactive: HCT-116 > 100 µM | SNB-75 > 100 µM | EKVX > 100 µM | MDA-MB-435 > 100 µM | CAKI-1 > 100 µM | KM12 > 100 µM | SK-MEL-28 > 100 µM | HCC 2998 > 100 µM | TK-10 > 100 µM | IGROV-1 > 100 µM | DU-145 > 100 µM | MCF7 > 100 µM | OVCAR-8 > 100 µM | A498 > 100 µM | SNB-19 > 100 µM | SN12C > 100 µM | SF-268 > 100 µM

CCN(CC)CCCNC(=O)c1cc2cc(NC(=O)c3cc4cc([N+](=O)[O-])ccc4[nH]3)ccc2[nH]1
inactive: HCT-116 > 100 µM | SNB-75 > 100 µM | EKVX > 100 µM | MDA-MB-435 51.1 µM | CAKI-1 > 100 µM | KM12 7.21 µM | SK-MEL-28 30.3 µM | HCC 2998 > 100 µM | TK-10 > 100 µM | IGROV-1 > 100 µM | DU-145 > 100 µM | MCF7 48.1 µM | OVCAR-8 > 100 µM | A498 27.4 µM | SNB-19 > 100 µM | SN12C > 100 µM | SF-268 > 100 µM | SK-MEL-2 > 100 µM

Cc1ccccc1N(C)S(=O)(=O)c1ccccc1[N+](=O)[O-]
inactive: HCT-116 41.1 µM | SNB-75 47.6 µM | EKVX 32.2 µM | MDA-MB-435 33.4 µM | CAKI-1 59.3 µM | KM12 55.7 µM | SK-MEL-28 54.1 µM | HCC 2998 51.3 µM | TK-10 > 100 µM | IGROV-1 > 100 µM | DU-145 > 100 µM | MCF7 42.5 µM | OVCAR-8 75 µM | LOX IMVI 55.3 µM | SNB-19 67.8 µM | SN12C > 100 µM | SF-268 40.7 µM | SK-MEL-2 47.5 µM

Fc1cccc(F)c1C1SCc2nc3cc(Cl)ccc3n21 (stereo unspecified)
inactive: HCT-116 18.5 µM | SNB-75 40.1 µM | EKVX 36.6 µM | MDA-MB-435 33 µM | CAKI-1 16.6 µM | KM12 22.8 µM | SK-MEL-28 50.8 µM | HCC 2998 22.7 µM | TK-10 > 100 µM | IGROV-1 > 42.9 µM | DU-145 68.5 µM | MCF7 15 µM | OVCAR-8 58.7 µM | LOX IMVI 18.5 µM | SNB-19 92.5 µM | SN12C 56.5 µM | SF-268 > 100 µM | SK-MEL-2 30.6 µM

N#CC1Nc2ccccc2[C@@H](O)C1O (stereo partly specified)
inactive: HCT-116 > 100 µM | SNB-75 > 100 µM | EKVX > 100 µM | MDA-MB-435 > 100 µM | CAKI-1 > 100 µM | KM12 > 100 µM | SK-MEL-28 > 100 µM | HCC 2998 > 100 µM | TK-10 > 100 µM | IGROV-1 > 100 µM | DU-145 > 100 µM | MCF7 > 100 µM | OVCAR-8 > 100 µM | LOX IMVI > 100 µM | SN12C > 100 µM | SF-268 > 100 µM | SK-MEL-2 > 100 µM
